Reference: US20130203718A1 (priority 2010, published 2013)
Read-outs that look alike come from different tables or passages of the source.

Legend:
hGR = molecular target: T1, hGR (Homo sapiens, UniProt P04150); test: APRn selectivity: transactivation in HEK293T cells transiently expressing hGR; type: cell-based; settings: for GR Antagonist efficacy (%): dexamethasone 10^−9 M; for Emax: HEK-293T, read-out: GR Agonist efficacy (%)
T1 construct: expressed in transfected cells; host or cells: HEK 293T
T1 sequence (P04150 1-777): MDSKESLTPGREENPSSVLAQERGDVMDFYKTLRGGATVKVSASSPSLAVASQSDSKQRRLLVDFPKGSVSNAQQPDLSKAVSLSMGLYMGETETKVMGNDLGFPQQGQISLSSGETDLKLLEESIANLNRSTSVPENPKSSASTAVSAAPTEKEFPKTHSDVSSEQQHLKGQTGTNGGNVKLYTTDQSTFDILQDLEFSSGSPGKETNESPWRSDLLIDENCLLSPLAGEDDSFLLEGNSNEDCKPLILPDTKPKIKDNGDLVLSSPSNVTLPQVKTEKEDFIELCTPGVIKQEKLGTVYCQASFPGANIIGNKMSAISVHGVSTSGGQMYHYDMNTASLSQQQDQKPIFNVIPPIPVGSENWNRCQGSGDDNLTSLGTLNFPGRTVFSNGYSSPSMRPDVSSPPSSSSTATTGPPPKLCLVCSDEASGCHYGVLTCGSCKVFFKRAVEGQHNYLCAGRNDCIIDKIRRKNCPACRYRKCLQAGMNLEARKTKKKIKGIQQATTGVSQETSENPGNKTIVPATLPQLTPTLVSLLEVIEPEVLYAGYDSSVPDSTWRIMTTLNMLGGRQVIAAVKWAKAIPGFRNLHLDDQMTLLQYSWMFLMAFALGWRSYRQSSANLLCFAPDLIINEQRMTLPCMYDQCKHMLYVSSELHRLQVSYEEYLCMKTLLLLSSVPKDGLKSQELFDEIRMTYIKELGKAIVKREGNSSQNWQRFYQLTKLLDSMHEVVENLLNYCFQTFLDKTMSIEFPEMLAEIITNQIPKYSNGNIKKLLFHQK
Experimental: Measurement of the APRn Selectivity in HEK 293T.
The HEK-293T cells were cultured and transfected according to the method described above for the PR transactivation assays. The expression vectors pcDNA-hAR, kindly provided by G. A. Coetzee, pchGR (Hellal-Levy, C et al. FEBS Lett 1999, 464, 9), and pchMR (Fagart, J. et al. EMBO J. 1998, 17, 3317) were used for studying the ability of APRn to activate or inactivate the AR, GR and MR, respectively. For each transfection assays, 2 μg of the expression vector was used together with 7 μg of the GRE2-Luc reporter vector. Dihydrotestosterone (DHT), dexamethasone (Dex) and Aldosterone (Aldo) were selected as AR, GR and MR ligands, respectively. They were used at the concentration of 10^−9 M. The APRn agonist and antagonist efficacy for AR, GR and MR were measured as described above for PR. The results are the mean±SEM of three independent experiments.
Transfection assays were performed in HEK 293T cells by using expression vectors for the hAR, hGR and hMR and the GRE2-Luc reporter used for the PR transactivation assays.

[1] = system: PRB-mediated amphiregulin gene transcription; test: Quantitative RT-PCR of endogenous gene transcription in MDA-MB-231 iPRAB cells; type: cell-based, human; settings: APRn 1 μM, 6 h, FIG. 10
Experimental: MDA-MB-231 iPRAB cells were cultured in 6-well plates in RPMI 1640 medium with L-glutamine without phenol red, enriched with 5% DCC serum containing inducer ligand RSL1 (500 nM) or Dox (1 μg/ml) for PRA or PRB expression during 24 h. […] Total RNA was then extracted using TRIZOL reagent (Invitrogen). One μg of total RNA was treated with DNase I Amplification Grade (Invitrogen) and then reverse transcribed using cDNA RT kit from Applied Biosystems (Courtaboeuf, France) and random primers. Following a ten-fold dilution, the cDNA samples were amplified in duplicate by real-time PCR in ABI 7300 apparatus (Applied Biosystems), using the Power SYBR Green PCR Master Mix (Applied Biosystems) in the presence of 300 nM of forward and reverse specific primers. A dissociation curve was also obtained at the end of the reaction to verify the specificity of the pair of primers. Standard curve for PCR calibration of each gene transcript tested was obtained with the corresponding amplicon subcloned in pGEMT-easy (Promega) and verified by sequencing analysis. The expression level of each gene transcript was normalized to 18S RNA level, and results were expressed as means of relative concentrations of six samples (attomole of specific gene cDNA/femtomole of 18S cDNA±SEM.)
The selected APRn (APR16, APR19, APR43, APR47, APR51, APR54) were verified for their agonist and antagonistic properties on endogenous gene transcription. A ligand activated PRB target gene, amphiregulin was selected for these studies (Georgiakaki, M. Mol Endocrinol 2006, 20, 2122) and quantitative RT-PCR analysis was performed in MDA-MB-231 iPRAB cells as described in Materials and Methods.

[2] = HEK293T transiently expressing hGR, mean±SEM

SMILES	GR Antagonist efficacy (%) (hGR; [2])	Emax (hGR)	agonistic effect on amphiregulin gene transcription [1]	Emax (hGR; [2])
CC#C[C@]1(O)CCC2C3CC[C@H]4C[C@@H](F)CC[C@]4(C)C3CC[C@@]21C (stereo partly drawn) [APR-43, 3β-Fluoro-17α-(1-propynyl)-5α-androstan-17β-ol]	−9.0 ± 1.7%	0.17 ± 0.05%		
C[C@@H]1CCC2C3CC=C4C[C@@H](F)CC[C@]4(C)C3CC[C@]2(C)[C@H]1F (stereo partly drawn) [APR-19, 3β,17α-Difluoro-17α-methyl-D-Homo-pregn-5-ene]	−3.5 ± 1.4%	0.26 ± 0.05%		
C[C@]12CCC3C(CC=C4C[C@@H](F)CC[C@@H]43)C1CCC2=O (stereo partly drawn) [APR-47, 3β-Fluoro-19-nor-androst-5-en-17-one]	1.5 ± 4.3%	0.16 ± 0.02%	nearly unable to exert agonistic effect	
CC#C[C@]1(O)CCC2C3CC[C@H]4CCCC[C@]4(C)C3CC[C@@]21C (stereo partly drawn) [APR-42, 17α-(1-Propynyl)-5α-androstan-17β-ol]	4.4 ± 3.3%			0.22 ± 0.07%
CC#C[C@]1(O)CCC2C3CC=C4C[C@@H](F)CC[C@@H]4C3CC[C@@]21C (stereo partly drawn) [APR-51, 3β-Fluoro-17α-(1-propynyl)-19-nor-androst-5-en-17β-ol]	19.3 ± 7.3%	0.29 ± 0.08%		
CC#C[C@]1(O)CCC2C3CC[C@H]4CCCC[C@@H]4C3CC[C@@]21C (stereo partly drawn) [APR-54, 17α-(1-Propynyl)-19-nor-5-androstan-17β-ol]	−0.1 ± 3.3%		nearly unable to exert agonistic effect	0.15 ± 0.02%
CC(=O)[C@H]1CC[C@H]2[C@@H]3CC=C4C[C@@H](F)CC[C@]4(C)[C@H]3CC[C@]12C [APR-16, 3β-Fluoropregn-5-en-20-one]	0.1 ± 2.2%		nearly unable to exert agonistic effect	0.25 ± 0.02%
